According to US9011862B2, “Inhibitors of the nitration of amyloid β peptides and their uses in the diagnosis and treatment of Alzheimer's disease” (Rheinische Friedrich-Wilhelms-Universität Bonn, priority 2009, dated 2015):
“Also recorded” adds a separate entry of the source.

Key:
primary microglial cells = test: Microglial phagocytosis of FAM-labeled Aβ1-42; type: cell-based, mouse; conditions: 500 nM FAM-Aβ1-42
Procedure: (4A) Analysis of phagocytosis of primary microglia cells from wild type (wt) and iNOS deficient (iNOS (−/−)) mice exposed to 500 nM fibrillar FAM labeled Aβ1-42 peptide for up to 6 h.
Primary microglial cell cultures were prepared as previously described. Briefly, mixed glial cultures were prepared from newborn mice and cultured in DMEM supplemented with 10% FCS and 100 U ml^−1 penicillin/streptomycin. After 10-14 days of primary cultivation, microglial cells were harvested by shake off.
Microglial phagocytosis of FAM-labeled Aβ1-42 (FAM-Aβ) (Anaspec, San Diego, Calif.) was measured by plate based assay. Cells were plated at 50000 cells per well. After 1 h cells Aβ was added to a final concentration of 500 nM and incubated. Finally, the Aβ-containing medium was removed and extracellular Aβ was quenched with 100 μl 0.2% trypan blue in PBS pH 4.4 for 1 min. After aspiration fluorescence was measured at 485 nm excitation/535 nm emission using a Spectrafluor Plus reader (Tecan, Austria). To normalize for cell numbers 100 μl 50 μg/ml H33342 in PBS was added, incubated for 30 min and the fluorescence measured at 360 nm excitation/465 nm emission.

APP/PS1 mice [1] = test: Eight arm radial maze test; type: in vivo, mouse
APP/PS1 mice [2] = test: Brain extract Aβ immunoblot and Aβ1-40/Aβ1-42 ELISA; type: in vivo, mouse
APP/PS1 mice [3] = test: Hippocampal LTP recording on brain slices of treated mice; type: in vivo, mouse
Source text: (n=5+/−SEM) Right panel: Evaluation of the early (slope 1; […]; […]) of the amplitude of the mean fEPSP (n=5+/−SEM of ten minutes recordings, one-way ANOVA, Newman-Keuls post test, *p<0.05; **p<0.01; ***p<0.001) (2B) Determination of the slope of the mean fEPSP as in A. Right panel: Evaluation of the amplitude of the mean fEPSP (2C) Immunblot of brain homogenates and synaptosomal fractions in wild type and APP/PS1 animals at 12 month of age using an anti-S-nitrocystein specific antibody. (2D) Coomassie stain of anti-S-nitrocystein antibody precipitated synaptosomal fractions from wild type, APP/PS1, APP/PS1 iNOS (−/−) and APP/PS1 L-NIL mice separated by SDS-PAGE (2E) Protein sequence of Hsp75/mortalin. […]
Physiological recordings were performed on brain slices from 3 month old male and female mice, obtained after anesthetization with isoflurane and decapitation. […] Basal synaptic transmission (BST) was assessed by plotting the current (mA) against the peak amplitudes of fEPSP to generate input-output relations. Paired pulse facilitation (PPF) were recorded by applying interstimulus intervals of 30, 50, 75 and 100 ms. For long term potentiation (LTP) experiments a 15 min baseline were recorded with a interpulse interval of one minute at an intensity that evoked a response approximately 30% of maximum fEPSP. […]

recombinant IDE [4] = molecular target: T1, recombinant IDE (Homo sapiens, UniProt P14735); test: Fluorogenic substrate enzymatic assay, IDE; type: biochemical; conditions: 1 mM Sin-1, 30 min preincubation
T1 construct: purchased R&D
T1 sequence (P14735 1-1019): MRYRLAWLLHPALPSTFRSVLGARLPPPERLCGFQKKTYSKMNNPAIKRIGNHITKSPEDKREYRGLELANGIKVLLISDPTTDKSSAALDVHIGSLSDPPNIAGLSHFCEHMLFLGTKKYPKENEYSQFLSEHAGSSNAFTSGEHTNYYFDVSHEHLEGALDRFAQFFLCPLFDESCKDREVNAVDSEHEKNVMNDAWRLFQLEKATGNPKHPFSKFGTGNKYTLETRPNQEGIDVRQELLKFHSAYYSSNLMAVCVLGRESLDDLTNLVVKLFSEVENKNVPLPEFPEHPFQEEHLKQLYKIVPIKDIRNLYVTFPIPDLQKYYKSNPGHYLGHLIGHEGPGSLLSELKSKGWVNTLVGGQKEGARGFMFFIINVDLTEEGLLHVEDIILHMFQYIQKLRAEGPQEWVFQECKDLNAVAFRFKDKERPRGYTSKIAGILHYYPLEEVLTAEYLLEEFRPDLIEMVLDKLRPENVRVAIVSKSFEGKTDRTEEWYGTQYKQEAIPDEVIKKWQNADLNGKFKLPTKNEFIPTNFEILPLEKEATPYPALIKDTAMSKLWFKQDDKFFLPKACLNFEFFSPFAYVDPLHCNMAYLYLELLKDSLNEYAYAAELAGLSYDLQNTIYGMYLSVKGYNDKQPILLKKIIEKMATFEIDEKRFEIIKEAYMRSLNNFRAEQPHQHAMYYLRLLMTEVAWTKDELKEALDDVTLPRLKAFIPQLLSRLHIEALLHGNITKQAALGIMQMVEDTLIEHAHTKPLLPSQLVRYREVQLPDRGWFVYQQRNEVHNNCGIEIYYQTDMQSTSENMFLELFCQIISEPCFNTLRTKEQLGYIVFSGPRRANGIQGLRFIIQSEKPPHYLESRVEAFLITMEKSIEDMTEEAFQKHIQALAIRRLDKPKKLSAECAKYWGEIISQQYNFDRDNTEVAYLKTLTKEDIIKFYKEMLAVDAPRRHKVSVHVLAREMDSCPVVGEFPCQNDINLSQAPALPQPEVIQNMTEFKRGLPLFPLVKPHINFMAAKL
Procedure: (§1) Afterwards the substrate was added to a final concentration of 10 μM. The hydrolysis of substrate V was measured based on the increase of fluorescence (exitation 320 nm/emission 405 nm) using a Spectrafluor Plus (Tecan, Austria) plate reader for a time period of up to 60 min in 1 min intervals at 37 C. Determination of IDE activity in mouse brain was performed using the fluorogenic peptide substrate 2-aminobenzoyl-[…]-ethylenediamine-2,4-dinitrophenyl (Bachem, Switzerland)^21. For that mice brains were homogenized in PBS containing 1 mM AEBSF, extracted with 1% Tx-100 and centrifuged at 100000×g for 30 min. 10 μg of supernatants were incubated with 25 μM phosphoramidon to inhibit endogenous neprilysin activity. The fluorogenic substrate was added to a final concentration of 20 μM and the resulting fluorescence signal was measured (excitation 320 nm/emission 413 nm) every 3 min for up to 2 h at 37° C. using a infinite 200 plate reader (Tecan, Austria). Evaluation was done within the linear range of the reaction.

recombinant neprilysin = molecular target: T2, recombinant neprilysin (Homo sapiens, UniProt P08473); test: Fluorogenic substrate enzymatic assay, neprilysin; type: biochemical; conditions: preincubation with different concentrations of Sin-1
T2 construct: purchased R&D
T2 sequence (P08473 whole entry, species assumed): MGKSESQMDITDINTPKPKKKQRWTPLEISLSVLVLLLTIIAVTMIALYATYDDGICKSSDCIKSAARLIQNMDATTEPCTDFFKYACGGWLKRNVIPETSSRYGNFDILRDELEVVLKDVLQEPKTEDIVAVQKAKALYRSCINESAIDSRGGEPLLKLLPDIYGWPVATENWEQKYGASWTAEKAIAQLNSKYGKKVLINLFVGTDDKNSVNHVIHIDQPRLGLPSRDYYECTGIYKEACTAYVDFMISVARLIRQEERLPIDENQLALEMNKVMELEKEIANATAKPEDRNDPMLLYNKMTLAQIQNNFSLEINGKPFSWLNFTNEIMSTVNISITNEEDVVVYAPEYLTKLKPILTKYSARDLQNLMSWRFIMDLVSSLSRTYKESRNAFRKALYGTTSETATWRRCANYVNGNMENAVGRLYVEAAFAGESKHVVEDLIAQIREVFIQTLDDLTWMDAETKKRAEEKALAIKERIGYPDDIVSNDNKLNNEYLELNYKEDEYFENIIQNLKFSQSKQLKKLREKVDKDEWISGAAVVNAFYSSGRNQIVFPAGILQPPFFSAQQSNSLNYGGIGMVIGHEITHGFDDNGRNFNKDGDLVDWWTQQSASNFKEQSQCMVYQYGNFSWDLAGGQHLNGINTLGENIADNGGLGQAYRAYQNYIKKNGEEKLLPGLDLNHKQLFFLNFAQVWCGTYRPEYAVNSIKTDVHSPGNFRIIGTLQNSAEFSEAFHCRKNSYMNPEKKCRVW
Procedure: as §1

recombinant IDE [5] = molecular target: T1, recombinant IDE; test: Immunoblot of IDE nitration after Sin-1 incubation; type: biochemical; conditions: Sin-1 incubated with purified recombinant IDE
recombinant IDE [6] = molecular target: T1, recombinant IDE; test: Aβ degradation assay; type: biochemical; conditions: IDE preincubated with increasing concentration of Sin-1, then Aβ1-42 for 2 h
Source text: Samples were separated by 4-12% NuPAGE and immunoblotted using antibodies PC720 against IDE and 6E10 against Aβ (5E) RIPA fractions of 12 month wild type, APP/PS1 and APP/PS1 iNOS (−/−) animals were monitored for their ability to cleave a fluorgenic peptide substrate in the presence of the neprilysin inhibitor phosphoramidon (n=4+/−SEM, one way anova followed by Tukey post hoc test, […], *p<0.05)

Aβ1-42 [7] = molecular target: T3, Aβ1-42 (Homo sapiens, UniProt P05067); test: Aβ aggregation assay (SDS-PAGE, immunoblot 6E10); type: biochemical; conditions: for high molecular weight (SDS-resistant) aggregates of synthetic Aβ1-42 after incubation with the agent: 5 mM Sin-1 or 0.25 mM peroxynitrite, 18 h
T3 construct: Amyloid β 1-42 or Amyloid β 1-42 Y10A (both from rPeptide, Bogart, Ga., USA); host or cells: synthetic peptide
T3 sequence (P05067 672-713): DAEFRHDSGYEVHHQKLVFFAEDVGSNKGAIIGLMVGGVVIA
Procedure: (§2) (6B) Same assay as in A but samples were incubated for different time periods with PN.
(§3) Peptides were separated by 4-12% Nupage and blotted transferred nitrocelluse and incubated with antibody 6E10 (Signet). The remaining sample was stored at −20° C. and analyzed by mass spectrometry. In case of the time course experiment the reaction was stopped using Nupage sample buffer followed by incubation at 70 C for 5 min.
(§4) Aβ1-42, Aβ1-42 Y10F (Peptide Specialty Laboratories) were solubilized as previously described. For nitration samples were incubated with 0.25-0.5 mM peroxynitrate in water while vortexing. Aggregation was started by diluting samples to 25 μM using 50 mM Tris-HCl pH 7. Samples were separated by 4-12% NuPAGE and aggregates were detected using anti-body 6E10 (Signet) and 3-NTyr10-Aβ. Aggregation was expressed as a ratio between the signal above 30 kDa and the Aβ monomer, normalized to the 0 time point of Aβ1-42. Thioflavin T fluorescence assays were performed as described previously. Fluorescence was read at 446 nm (excitation) and 482 nm (emission) using a fluorescence spectrophotometer (Varian).

Aβ1-42 [8] = test: Aβ aggregation assay (SDS-PAGE, immunoblot 6E10); type: biochemical, human; conditions: compared with Aβ1-42
Procedure: as §2, §3, §4

Aβ1-42 [9] = test: Thioflavin T aggregation assay; type: biochemical, human; conditions: peptide treated with peroxynitrite, compared with Aβ1-42
Procedure: as §4

Aβ1-42 [10] = molecular target: T3, Aβ1-42; test: In vitro Aβ1-42 aggregation with added nitrated Aβ1-42; type: biochemical; conditions: 25 μM Aβ1-42, 5 h, antibody IC16
[11] = APP/PS1 mice at 3 month of age, L-NIL orally in the water from 2-3 month

With CC(=O)N[C@@H](C(=O)O)C(C)(C)SN=O (racemic) [SNAP] the Aβ1-42 phagocytosis (primary microglial cells; SNAP 100 μM) was “did not expose differences”.
CC(=N)NCCCC[C@H](N)C(=O)O [L-NIL, L-N6-(1-iminoethyl)-lysine] was tested, and the working memory errors (APP/PS1 mice [1]; APP/PS1 mice at 3 and 12 months of age (summary statement)) was “significant reduction”, the reference memory errors (APP/PS1 mice [1]; [11]) was “protected” and the working memory errors (APP/PS1 mice [1]; [11]) was “to some extent”. The reference memory errors (APP/PS1 mice [1]; APP/PS1 mice at 12 month of age, L-NIL from 6-12 month (post plaque, therapeutic)) was “reversion of APP/PS1 phenotype”, the “working and reference memory errors” value (APP/PS1 mice [1]; APP/PS1 mice treated with L-NIL, age not stated (summary statement)) was “reduction” and the “levels of insoluble and soluble Aβ40 and Aβ42 by ELISA” value (APP/PS1 mice [2]; 5 month old APP/PS1 mice preventively treated with L-NIL from 2-3 month) was “unable to detect any changes”. The “insoluble Aβ by immunoblot and insoluble Aβ 1-40 and Aβ 1-42 by ELISA” value (APP/PS1 mice [2]; 12 month old APP/PS1 mice, L-NIL from 6-12 month) was “strong reduction”, the LTP (APP/PS1 mice [3]; APP/PS1 mice at 3 months of age (summary statement)) was “improvement” and the “APP/PS1 induced reduction (suppression) of early and late phase hippocampal LTP” value (APP/PS1 mice [3]; hippocampal slices of 3 month old mice, L-NIL from 2-3 month, 10 and after induction) was “completely prevented; also recorded: not existent”. The Aβ1-42 phagocytosis (primary microglial cells; L-NIL 10 μM) was “did not expose differences”.
With N=c1c[n+](N2CCOCC2)[n-]o1 [Sin-1, 3-morpholino-sydnonimine] the IDE activity (recombinant IDE [4]) was “almost complete inhibition”, the activity of neprilysin (recombinant neprilysin) was “could not detect any impact” and the “nitration of IDE (nitrotyrosine immunoblot)” value (recombinant IDE [5]) was “modifications of IDE detectable with an nitrotyrosine specific antibody”. The “degradation of Aβ1-42 by IDE” value (recombinant IDE [6]) was “decreased degradation” and the “high molecular weight (SDS-resistant) aggregates of synthetic Aβ1-42 after incubation with the agent” value (from here on “high molecular weight … with the agent”) (Aβ1-42 [7]) was “strong induction; also recorded: increased generation”.
O=NOO [peroxynitrite] was tested, and the “high molecular weight … with the agent” value (Aβ1-42 [7]) was “increased generation”, the “high molecular weight … with the agent” value (Aβ1-42 [7]; listed as peroxynitrit) was “strong induction” and the “increase of high molecular aggregates over time” value (Aβ1-42 [7]; within 24 h after peroxynitrite treatment) was “x-fold increase”.
For “Aβ42Y10A: modified human Aβ1-42, tyrosine at position 10 replaced by an alanine (SEQ ID NO. 2)”, the “high molecular weight aggregates of the mutated peptide after incubation with peroxynitrite or Sin-1” value (Aβ1-42 [8]) was “reduced aggregation to the level of untreated Aβ1-42”.
In the case of “Aβ42Y10F: Aβ1-42 peptide with a tyrosine to phenylalanine mutation at position 10”, the “high molecular weight aggregates of the mutated peptide after incubation with peroxynitrite or Sin-1” value (Aβ1-42 [8]) is reported as “reduced aggregation to the level of untreated Aβ1-42” and the “formation rate of β-sheet amyloid fibril structures (thioflavin T)” value (Aβ1-42 [9]) is reported as “prevented”.
With “nitrated Aβ1-42: synthetic Aβ1-42 nitrated at tyrosine 10 by peroxynitrite treatment” the “formation rate of β-sheet amyloid fibril structures (thioflavin T)” value (Aβ1-42 [9]) was “increased formation rate” and the “formation of Aβ oligomers on addition of small amounts of nitrated Aβ1-42 species” value (Aβ1-42 [10]) was “increased formation”.
